Measured values: patent publication US11730720B2, “ALK5 inhibitors” (THERAVANCE BIOPHARMA R&D IP, LLC, priority 2018, dated 2023)

How the values were obtained:
[1] = test system: TGF-β-stimulated SMAD3 phosphorylation in BEAS-2B cells; assay: Cellular ALK5 potency assay, inhibition of TGF-β stimulated pSMAD3 formation in BEAS-2B cells; assay type: cell-based; conditions: Homo sapiens, inhibition of TGF-β (10 ng/mL) stimulated pSMAD3 formation, 1 hour compound incubation, read-out: BEAS2B pIC50 (converted)
Summary of the method: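 Phospho-SMAD3 was quantified by AlphaLISA in lysates of human lung epithelial BEAS-2B cells. Compound was added 1 h (37 °C, HEPES/BSA-supplemented HBSS) before a 30 min challenge with 10 ng/mL TGF-β. Values are pIC50 relative to stimulated cells without compound.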

[2] = biological target: T1, recombinant human ALK5 (TGF-βR1) protein (Homo sapiens, UniProt P36897); assay: Biochemical ALK5 (TGF-βR1) assay to measure pKi (LANCE Ultra ULight kinase assay); conditions: apparent pKi, converted from pIC50 using the Cheng-Prusoff equation
T1 construct: purchased Life Technologies PR9075A
T1 sequence (P36897 34-503): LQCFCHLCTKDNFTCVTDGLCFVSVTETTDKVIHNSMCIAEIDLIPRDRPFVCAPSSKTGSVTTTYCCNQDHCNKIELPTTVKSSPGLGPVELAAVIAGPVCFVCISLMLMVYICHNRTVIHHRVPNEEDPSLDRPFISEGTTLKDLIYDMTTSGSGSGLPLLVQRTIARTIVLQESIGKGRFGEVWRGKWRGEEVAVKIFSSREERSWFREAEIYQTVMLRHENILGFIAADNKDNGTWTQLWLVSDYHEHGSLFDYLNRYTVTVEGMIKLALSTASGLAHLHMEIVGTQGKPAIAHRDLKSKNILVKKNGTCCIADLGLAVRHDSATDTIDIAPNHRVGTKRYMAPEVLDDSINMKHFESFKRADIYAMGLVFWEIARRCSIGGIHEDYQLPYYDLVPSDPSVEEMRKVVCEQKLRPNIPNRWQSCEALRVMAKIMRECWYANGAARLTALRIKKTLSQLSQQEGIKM
Summary of the method: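 TR-FRET kinase format: compound dose range 10 μM–25 pM equilibrated 60 min with human ALK5 and ULight-labelled topoisomerase 2α peptide in HEPES/MgCl2 buffer pH 7.5 with DTT. Reaction started with ATP (125 μM stock, 5× final), 60 min at 37° C, stopped with EDTA/Eu-anti-phospho antibody; pKi derived from pIC50 via Cheng-Prusoff.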

SMILES: C[C@@H]1CN(CCNc2cnc3ccc(-c4c[nH]nc4-c4cc(Cl)c(F)cc4F)nc3c2)C[C@H](C)N1 [Compound 6-74, 6-[3-(5-chloro-2,4-difluoro-phenyl)-1H-pyrazol-4-yl]-N-[2-[rac-(3R,5S)-3,5-dimethylpiperazin-1-yl]ethyl]-1,5-naphthyridin-3-amine]
- IC50 [1]: 25.1 to 158 nM
- Ki [2]: 0.0398 to 0.316 nM

SMILES: Fc1cc(F)c(-c2n[nH]cc2-c2ccc3ncc(-c4nc(C(F)(F)F)n5c4CNCC5)cc3n2)cc1Cl [Compound 6-50, 2-[3-(5-chloro-2,4-difluoro-phenyl)-1H-pyrazol-4-yl]-7-[3-(trifluoromethyl)-5,6,7,8-tetrahydroimidazo[1,5-a]pyrazin-1-yl]-1,5-naphthyridine]
- IC50 [1]: 25.1 to 158 nM
- Ki [2]: 3.98 to 31.6 nM

SMILES: Fc1ccc(Cl)cc1-c1n[nH]cc1-c1ccc2ncc(NCC3CCNC3)cc2n1 (centres unmarked) [Compound 1-16, 6-[3-(5-chloro-2-fluoro-phenyl)-1H-pyrazol-4-yl]-N-(pyrrolidin-3-ylmethyl)-1,5-naphthyridin-3-amine]
- IC50 [1]: 25.1 to 158 nM
- Ki [2]: 0.0398 to 0.316 nM

SMILES: CNC(=O)[C@@H]1CN(c2cnc3ccc(-c4c[nH]nc4-c4cc(Cl)c(F)cc4F)nc3c2)CCN1 [Compound 6-26, (2S)-4-[6-[3-(5-chloro-2,4-difluoro-phenyl)-1H-pyrazol-4-yl]-1,5-naphthyridin-3-yl]-N-methyl-piperazine-2-carboxamide]
- IC50 [1]: 25.1 to 158 nM
- Ki [2]: 0.398 to 3.16 nM

SMILES: CNCCn1cc(-c2cnc3ccc(-c4nc[nH]c4-c4cc(Cl)ccc4F)cc3c2)cn1 [Compound 17-2, 2-[4-[6-[5-(5-chloro-2-fluoro-phenyl)-1H-imidazol-4-yl]-3-quinolyl]pyrazol-1-yl]-N-methyl-ethanamine]
- IC50 [1]: 25.1 to 158 nM
- Ki [2]: ≤ 0.0316 nM

SMILES: Fc1cc(F)c(-c2n[nH]cc2-c2ccc3ncc(-c4cnc5n4CCCN5)cc3n2)cc1Cl [Compound 6-60, 2-[3-(5-chloro-2,4-difluoro-phenyl)-1H-pyrazol-4-yl]-7-(5,6,7,8-tetrahydroimidazo[1,2-a]pyrimidin-3-yl)-1,5-naphthyridine]
- IC50 [1]: 25.1 to 158 nM
- Ki [2]: 0.398 to 3.16 nM

SMILES: Fc1ccc(Cl)cc1-c1[nH]cnc1-c1ccc2ncc(-c3cnc4n3CCNC4)cc2c1 [Compound 17-10, 6-[5-(5-chloro-2-fluoro-phenyl)-1H-imidazol-4-yl]-3-(5,6,7,8-tetrahydroimidazo[1,2-a]pyrazin-3-yl)quinoline]
- IC50 [1]: 25.1 to 158 nM
- Ki [2]: 0.398 to 3.16 nM

SMILES: CC(C)N1CCN(CCNc2cnc3ccc(-c4nc[nH]c4-c4cc(Cl)c(F)cc4F)nc3c2)CC1 [Compound 7-2, 6-[5-(5-chloro-2,4-difluoro-phenyl)-1H-imidazol-4-yl]-N-[2-(4-isopropylpiperazin-1-yl)ethyl]-1,5-naphthyridin-3-amine]
- IC50 [1]: 25.1 to 158 nM
- Ki [2]: 0.0398 to 0.316 nM

SMILES: CNC1CCN(c2cnc3ccc(-c4c(-c5cc(Cl)ccc5F)[nH]c5cccnc45)nc3c2)CC1 [Compound 25-1, 1-[6-[2-(5-chloro-2-fluoro-phenyl)-1H-pyrrolo[3,2-b]pyridin-3-yl]-1,5-naphthyridin-3-yl]-N-methyl-piperidin-4-amine]
- IC50 [1]: 200 to 1260 nM
- Ki [2]: 3.98 to 31.6 nM

SMILES: CN(C)CCN1CCN(c2cnc3ccc(-c4c[nH]nc4-c4cc(Cl)ccc4F)nc3c2)CC1 [Compound 1-71, 2-[4-[6-[3-(5-chloro-2-fluoro-phenyl)-1H-pyrazol-4-yl]-1,5-naphthyridin-3-yl]piperazin-1-yl]-N,N-dimethyl-ethanamine]
- IC50 [1]: ≤ 20 nM
- Ki [2]: ≤ 0.0316 nM

SMILES: CCOC(=O)Cn1cc(-c2cnc3ccc(-c4c[nH]nc4-c4cc(Cl)ccc4F)nc3c2)nn1 [Compound 1-103, ethyl 2-[4-[6-[3-(5-chloro-2-fluoro-phenyl)-1H-pyrazol-4-yl]-1,5-naphthyridin-3-yl]triazol-1-yl]acetate]
- IC50 [1]: 25.1 to 158 nM
- Ki [2]: ≤ 0.0316 nM

SMILES: CC(C)N1CCN(CCNc2cnc3ccc(-c4c[nH]nc4-c4cccc(Cl)c4)nc3c2)CC1 [Compound 28-1, 6-(3-(3-chlorophenyl)-1H-pyrazol-4-yl)-N-(2-(4-isopropylpiperazin-1-yl)ethyl)-1,5-naphthyridin-3-amine]
- IC50 [1]: 25.1 to 158 nM
- Ki [2]: 0.0398 to 0.316 nM

SMILES: CC(C)OC(=O)[C@H]1CN(c2cnc3ccc(-c4c[nH]nc4-c4cc(Cl)ccc4F)nc3c2)CCN1 [Compound 1-68, isopropyl (2R)-4-[6-[3-(5-chloro-2-fluoro-phenyl)-1H-pyrazol-4-yl]-1,5-naphthyridin-3-yl]piperazine-2-carboxylate]
- IC50 [1]: 25.1 to 158 nM
- Ki [2]: 0.398 to 3.16 nM

SMILES: CC(C)NCCN1CCN(c2cnc3ccc(-c4c[nH]nc4-c4cc(Cl)c(F)cc4F)nc3c2)CC1 [Compound 6-39, N-[2-[4-[6-[3-(5-chloro-2,4-difluoro-phenyl)-1H-pyrazol-4-yl]-1,5-naphthyridin-3-yl]piperazin-1-yl]ethyl]propan-2-amine]
- IC50 [1]: 25.1 to 158 nM
- Ki [2]: 0.0398 to 0.316 nM

SMILES: CN(C)C1CCN(c2cnc3ccc(-c4c(-c5cc(Cl)ccc5F)nc5ccccn45)nc3c2)C1 (racemic) [Compound 3-4, rac-(3S)-1-[6-[2-(5-chloro-2-fluoro-phenyl)imidazo[1,2-a]pyridin-3-yl]-1,5-naphthyridin-3-yl]-N,N-dimethyl-pyrrolidin-3-amine]
- IC50 [1]: 200 to 1260 nM
- Ki [2]: 0.0398 to 0.316 nM

SMILES: Fc1ccc(Cl)cc1-c1n[nH]cc1-c1ccc2ncc(NC[C@@H]3CCCN3)cc2n1 [Compound 1-20, 6-[3-(5-chloro-2-fluoro-phenyl)-1H-pyrazol-4-yl]-N-[[(2S)-pyrrolidin-2-yl]methyl]-1,5-naphthyridin-3-amine]
- IC50 [1]: ≤ 20 nM
- Ki [2]: 0.0398 to 0.316 nM

SMILES: CCN1CCN(CCNc2cnc3ccc(-c4c[nH]nc4-c4cc(Cl)ccc4F)nc3c2)CC1 [Compound 1-11, 6-[3-(5-chloro-2-fluoro-phenyl)-1H-pyrazol-4-yl]-N-[2-(4-ethylpiperazin-1-yl)ethyl]-1,5-naphthyridin-3-amine]
- IC50 [1]: ≤ 20 nM
- Ki [2]: 0.0398 to 0.316 nM

SMILES: Fc1ccc(Cl)cc1-c1n[nH]cc1-c1ccc2ncc(N3CCn4nc(Br)nc4C3)cc2n1 [Compound 1-48, 7-(2-bromo-6,8-dihydro-5H-[1,2,4]triazolo[1,5-a]pyrazin-7-yl)-2-[3-(5-chloro-2-fluoro-phenyl)-1H-pyrazol-4-yl]-1,5-naphthyridine]
- IC50 [1]: ≤ 20 nM
- Ki [2]: 0.398 to 3.16 nM

SMILES: Fc1ccc(-c2[nH]cnc2-c2ccc3ncc(NCCN4CCNCC4)cc3c2)cc1F [Compound 23-5, 6-[5-(3,4-difluorophenyl)-1H-imidazol-4-yl]-N-(2-piperazin-1-ylethyl)quinolin-3-amine]
- IC50 [1]: 200 to 1260 nM
- Ki [2]: 3.98 to 31.6 nM

SMILES: CC(C)N1CCN(CCNc2cnc3ccc(-c4nn[nH]c4-c4cc(Cl)ccc4F)cc3c2)CC1 [Compound 18-3, 6-(5-(5-chloro-2-fluorophenyl)-1H-1,2,3-triazol-4-yl)-N-(2-(4-isopropylpiperazin-1-yl)ethyl)quinolin-3-amine]
- IC50 [1]: 25.1 to 158 nM
- Ki [2]: 0.398 to 3.16 nM

SMILES: CC(C)N1CCN(CCNc2cnc3ccc(-c4c[nH]nc4-c4cc(Cl)c(F)cc4F)nc3c2)CC1 [Compound 6-1, 6-(3-(5-chloro-2,4-difluorophenyl)-1H-pyrazol-4-yl)-N-(2-(4-isopropylpiperazin-1-yl)ethyl)-1,5-naphthyridin-3-amine]
- IC50 [1]: 25.1 to 158 nM
- Ki [2]: 0.0398 to 0.316 nM

SMILES: COC(=O)[C@H]1CN(c2cnc3ccc(-c4c[nH]nc4-c4cc(Cl)ccc4F)nc3c2)CCN1C [Compound 1-65, methyl (2R)-4-[6-[3-(5-chloro-2-fluoro-phenyl)-1H-pyrazol-4-yl]-1,5-naphthyridin-3-yl]-1-methyl-piperazine-2-carboxylate]
- IC50 [1]: 25.1 to 158 nM
- Ki [2]: 0.398 to 3.16 nM
